According to the supplement of paper PMC10307832:

Assays:
Test in all cases: relative viability (nuclei count vs DMSO), 5 days (fraction); higher = more cells survive
[1] = compound: C1CNCCC1C2=CC(=NN2)C3=CC=NC=C3 + C[C@@H](Oc1cc(-c2cnn(C3CCNCC3)c2)cnc1N)c1c(Cl)ccc(F)c1Cl [Crizotinib] (partner 1 µM)
In short: (§1)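 Lung cancer cell lines in 1536-well plates got either a single drug or a fixed anchor-drug dose together with five library-drug doses (not always all listed) in √10 steps, by pin tool, on the day after seeding. Nuclei were counted after 5 days, and relative viability is the treated-to-vehicle ratio of nuclei counts. Values are medians of duplicate plates.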

[2] = compound: C[C@@H](N)c1ccc(C(=O)Nc2ccnc3[nH]ccc23)cc1 + CC(=O)c1c(C)c2cnc(Nc3ccc(N4CCNCC4)cn3)nc2n(C2CCCC2)c1=O [Palbociclib] (partner 0.5 µM)
In short: as §1

Tanzisertib + Vorinostat = compound: O[C@H]1CC[C@H](Nc2ncc3nc(Nc4c(F)cc(F)cc4F)n([C@H]4CCOC4)c3n2)CC1 [Tanzisertib] + O=C(CCCCCCC(=O)Nc1ccccc1)NO [Vorinostat] (partner 1 µM)
In short: as §1

ChaGo-K-1
relative viability ([1]; first compound 0.08 µM): 0.926
relative viability ([1]; first compound 0.8 µM): 1.15
relative viability ([1]; first compound 2.53 µM): 1.08
relative viability ([1]; first compound 8 µM): 1.09
relative viability ([2]; first compound 0.04 µM): 0.923
relative viability ([2]; first compound 0.1265 µM): 0.908
relative viability ([2]; first compound 0.4 µM): 0.947
relative viability ([2]; first compound 1.265 µM): 0.893
relative viability ([2]; first compound 4 µM): 0.865
relative viability (Tanzisertib + Vorinostat; first compound 0.08 µM): 0.81
relative viability (Tanzisertib + Vorinostat; first compound 0.253 µM): 0.801
relative viability (Tanzisertib + Vorinostat; first compound 0.8 µM): 0.71
relative viability (Tanzisertib + Vorinostat; first compound 2.53 µM): 0.779
relative viability (Tanzisertib + Vorinostat; first compound 8 µM): 0.57

COR-L23
relative viability ([1]; first compound 0.08 µM): 0.651
relative viability ([1]; first compound 0.8 µM): 0.615
relative viability ([1]; first compound 2.53 µM): 0.719
relative viability ([1]; first compound 8 µM): 0.695
relative viability ([2]; first compound 0.04 µM): 0.231
relative viability ([2]; first compound 0.1265 µM): 0.357
relative viability ([2]; first compound 0.4 µM): 0.305
relative viability ([2]; first compound 1.265 µM): 0.235
relative viability ([2]; first compound 4 µM): 0.215
relative viability (Tanzisertib + Vorinostat; first compound 0.08 µM): 0.438
relative viability (Tanzisertib + Vorinostat; first compound 0.253 µM): 0.504
relative viability (Tanzisertib + Vorinostat; first compound 0.8 µM): 0.479
relative viability (Tanzisertib + Vorinostat; first compound 2.53 µM): 0.494
relative viability (Tanzisertib + Vorinostat; first compound 8 µM): 0.537

EMC-BAC-2
relative viability ([1]; first compound 0.08 µM): 0.705
relative viability ([1]; first compound 0.8 µM): 0.772
relative viability ([1]; first compound 2.53 µM): 0.751
relative viability ([1]; first compound 8 µM): 0.793
relative viability ([2]; first compound 0.04 µM): 0.473
relative viability ([2]; first compound 0.1265 µM): 0.501
relative viability ([2]; first compound 0.4 µM): 0.474
relative viability ([2]; first compound 1.265 µM): 0.48
relative viability ([2]; first compound 4 µM): 0.436
relative viability (Tanzisertib + Vorinostat; first compound 0.08 µM): 0.46
relative viability (Tanzisertib + Vorinostat; first compound 0.253 µM): 0.849
relative viability (Tanzisertib + Vorinostat; first compound 0.8 µM): 0.464
relative viability (Tanzisertib + Vorinostat; first compound 2.53 µM): 0.5
relative viability (Tanzisertib + Vorinostat; first compound 8 µM): 0.217

LCLC-103H
relative viability ([1]; first compound 0.08 µM): 1.11
relative viability ([1]; first compound 0.8 µM): 1.04
relative viability ([1]; first compound 2.53 µM): 1.07
relative viability ([1]; first compound 8 µM): 0.935
relative viability ([2]; first compound 0.04 µM): 0.473
relative viability ([2]; first compound 0.1265 µM): 0.478
relative viability ([2]; first compound 0.4 µM): 0.433
relative viability ([2]; first compound 1.265 µM): 0.423
relative viability ([2]; first compound 4 µM): 0.388
relative viability (Tanzisertib + Vorinostat; first compound 0.08 µM): 0.896
relative viability (Tanzisertib + Vorinostat; first compound 0.253 µM): 0.773
relative viability (Tanzisertib + Vorinostat; first compound 0.8 µM): 0.801
relative viability (Tanzisertib + Vorinostat; first compound 2.53 µM): 0.783
relative viability (Tanzisertib + Vorinostat; first compound 8 µM): 0.653

LK-2
relative viability ([1]; first compound 0.08 µM): 0.232
relative viability ([1]; first compound 0.8 µM): 0.252
relative viability ([1]; first compound 2.53 µM): 0.221
relative viability ([1]; first compound 8 µM): 0.265
relative viability ([2]; first compound 0.04 µM): 0.826
relative viability ([2]; first compound 0.1265 µM): 0.7
relative viability ([2]; first compound 0.4 µM): 0.655
relative viability ([2]; first compound 1.265 µM): 0.485
relative viability ([2]; first compound 4 µM): 0.912
relative viability (Tanzisertib + Vorinostat; first compound 0.08 µM): 0.365
relative viability (Tanzisertib + Vorinostat; first compound 0.253 µM): 0.356
relative viability (Tanzisertib + Vorinostat; first compound 0.8 µM): 0.282
relative viability (Tanzisertib + Vorinostat; first compound 2.53 µM): 0.25
relative viability (Tanzisertib + Vorinostat; first compound 8 µM): 0.278

SW 1573
relative viability ([1]; first compound 0.08 µM): 0.805
relative viability ([1]; first compound 0.8 µM): 0.713
relative viability ([1]; first compound 2.53 µM): 0.993
relative viability ([1]; first compound 8 µM): 0.795
relative viability ([2]; first compound 0.04 µM): 0.491
relative viability ([2]; first compound 0.1265 µM): 0.416
relative viability ([2]; first compound 0.4 µM): 0.385
relative viability ([2]; first compound 1.265 µM): 0.356
relative viability ([2]; first compound 4 µM): 0.341
relative viability (Tanzisertib + Vorinostat; first compound 0.08 µM): 1.21
relative viability (Tanzisertib + Vorinostat; first compound 0.253 µM): 0.666
relative viability (Tanzisertib + Vorinostat; first compound 0.8 µM): 0.72
relative viability (Tanzisertib + Vorinostat; first compound 2.53 µM): 1.04
relative viability (Tanzisertib + Vorinostat; first compound 8 µM): 0.566

NCI-H2405
relative viability ([1]; first compound 0.08 µM): 0.87
relative viability ([1]; first compound 0.8 µM): 0.777
relative viability ([1]; first compound 2.53 µM): 0.873
relative viability ([1]; first compound 8 µM): 0.825
relative viability ([2]; first compound 0.1265 µM): 0.505
relative viability ([2]; first compound 0.4 µM): 0.494
relative viability ([2]; first compound 1.265 µM): 0.3
relative viability ([2]; first compound 4 µM): 0.233
relative viability (Tanzisertib + Vorinostat; first compound 0.08 µM): 1.04
relative viability (Tanzisertib + Vorinostat; first compound 0.253 µM): 1.19
relative viability (Tanzisertib + Vorinostat; first compound 0.8 µM): 1.14
relative viability (Tanzisertib + Vorinostat; first compound 2.53 µM): 1.17
relative viability (Tanzisertib + Vorinostat; first compound 8 µM): 0.404

NCI-H2087
relative viability ([1]; first compound 0.08 µM): 0.837
relative viability ([1]; first compound 0.8 µM): 1.02
relative viability ([1]; first compound 2.53 µM): 0.976
relative viability ([1]; first compound 8 µM): 0.666
relative viability ([2]; first compound 0.04 µM): 0.24
relative viability ([2]; first compound 0.1265 µM): 0.263
relative viability ([2]; first compound 0.4 µM): 0.299
relative viability ([2]; first compound 1.265 µM): 0.254
relative viability ([2]; first compound 4 µM): 0.28
relative viability (Tanzisertib + Vorinostat; first compound 0.08 µM): 0.862
relative viability (Tanzisertib + Vorinostat; first compound 0.253 µM): 0.701
relative viability (Tanzisertib + Vorinostat; first compound 0.8 µM): 0.772
relative viability (Tanzisertib + Vorinostat; first compound 2.53 µM): 0.797
relative viability (Tanzisertib + Vorinostat; first compound 8 µM): 1.14

NCI-H460
relative viability ([1]; first compound 0.08 µM): 0.369
relative viability ([1]; first compound 0.8 µM): 1.02
relative viability ([1]; first compound 2.53 µM): 1.02
relative viability ([1]; first compound 8 µM): 0.996
relative viability ([2]; first compound 0.04 µM): 0.076
relative viability ([2]; first compound 0.1265 µM): 0.183
relative viability ([2]; first compound 0.4 µM): 0.343
relative viability ([2]; first compound 1.265 µM): 0.154
relative viability ([2]; first compound 4 µM): 0.224
relative viability (Tanzisertib + Vorinostat; first compound 0.08 µM): 0.864
relative viability (Tanzisertib + Vorinostat; first compound 0.253 µM): 0.89
relative viability (Tanzisertib + Vorinostat; first compound 0.8 µM): 0.744
relative viability (Tanzisertib + Vorinostat; first compound 2.53 µM): 0.729
relative viability (Tanzisertib + Vorinostat; first compound 8 µM): 0.699

LOU-NH91
relative viability ([1]; first compound 0.08 µM): 0.718
relative viability ([1]; first compound 0.8 µM): 0.733
relative viability ([1]; first compound 2.53 µM): 0.78
relative viability ([1]; first compound 8 µM): 0.742
relative viability ([2]; first compound 0.04 µM): 0.581
relative viability ([2]; first compound 0.1265 µM): 0.527
relative viability ([2]; first compound 0.4 µM): 0.533
relative viability ([2]; first compound 1.265 µM): 0.536
relative viability ([2]; first compound 4 µM): 0.448
relative viability (Tanzisertib + Vorinostat; first compound 0.08 µM): 0.948
relative viability (Tanzisertib + Vorinostat; first compound 0.253 µM): 0.924
relative viability (Tanzisertib + Vorinostat; first compound 0.8 µM): 1
relative viability (Tanzisertib + Vorinostat; first compound 2.53 µM): 0.974
relative viability (Tanzisertib + Vorinostat; first compound 8 µM): 0.418

NCI-H1651
relative viability ([1]; first compound 0.08 µM): 0.825
relative viability ([1]; first compound 0.8 µM): 0.832
relative viability ([1]; first compound 2.53 µM): 0.872
relative viability ([1]; first compound 8 µM): 0.854
relative viability ([2]; first compound 0.04 µM): 0.509
relative viability ([2]; first compound 0.1265 µM): 0.567
relative viability ([2]; first compound 0.4 µM): 0.554
relative viability ([2]; first compound 1.265 µM): 0.601
relative viability ([2]; first compound 4 µM): 0.567
relative viability (Tanzisertib + Vorinostat; first compound 0.08 µM): 0.575
relative viability (Tanzisertib + Vorinostat; first compound 0.253 µM): 0.603
relative viability (Tanzisertib + Vorinostat; first compound 0.8 µM): 0.513
relative viability (Tanzisertib + Vorinostat; first compound 2.53 µM): 0.517
relative viability (Tanzisertib + Vorinostat; first compound 8 µM): 0.549

NCI-H441
relative viability ([1]; first compound 0.08 µM): 0.709
relative viability ([1]; first compound 0.8 µM): 0.713
relative viability ([1]; first compound 2.53 µM): 0.853
relative viability ([1]; first compound 8 µM): 0.862
relative viability ([2]; first compound 0.04 µM): 0.233
relative viability ([2]; first compound 0.1265 µM): 0.265
relative viability ([2]; first compound 0.4 µM): 0.25
relative viability ([2]; first compound 1.265 µM): 0.237
relative viability ([2]; first compound 4 µM): 0.263
relative viability (Tanzisertib + Vorinostat; first compound 0.08 µM): 0.895
relative viability (Tanzisertib + Vorinostat; first compound 0.253 µM): 0.854
relative viability (Tanzisertib + Vorinostat; first compound 0.8 µM): 0.731
relative viability (Tanzisertib + Vorinostat; first compound 2.53 µM): 0.72
relative viability (Tanzisertib + Vorinostat; first compound 8 µM): 0.804
